Usually ED50 stands for the dose at which the effect has come halfway, by size or by number of responders. High values mean weaker potency, low ones greater potency.

From patent publication US5409709A (priority 1991, dated 1995) come the findings set out here.

Each structure is given as a SMILES string.

One test relates to pain threshold. Put plainly: Analgesic action (pressure stimulation of tail base, rise ratio of pain threshold). The class given is in vivo, Wistar strain male rats. The protocol:
Test medication A consisted of a suspension of Acasia used as the control. The other test medications contained the ingredients listed in the Table below, and were suspended in Acasia solution. These test medications were administered orally at a volume of 1 ml/100 g B.W. A pressure stimulation device (Analgesy-meter Model TK-201, Unicom) was used to apply pressure to the base of the tails of the animals. A pain threshold of […] was selected for the experimented animal based on parameters of reaction to temporary pain consisting of writhing, fleeing and squealing. The pain threshold was measured prior to oral administration of each test medication as well as at 30 and 120 minutes after administration. The ratio of the rise in the pain threshold at 30 and 120 minutes after administration was calculated from comparison with that before administration.

The subject of a further test is writhing syndrome. Put plainly: Analgesic action (acetic acid writhing syndrome). The test is classed as in vivo, ddY strain male mice. The note with it: oral, mouse; in terms of the amount of analgesic antipyretic ingredient. For orientation: In writhing tests, fewer writhes than in controls are read as antinociception.
Test [1] relates to body temperature (pyrogenic area, yeast). The test can be described thus: Antipyretic action (yeast-induced fever). The class given is in vivo, Wistar strain male rats. To be noted: oral, rat, up to 6 h; in terms of the amount of the antipyretic analgesic ingredient.

`CC(C)Cc1ccc(C(C)C(=O)O)cc1` (stereo not shown) [Ibuprofen, 2-(4-isobutylphenyl)propionic acid]: the “Pain threshold at 30 minutes (in words)” value in the test on pain threshold (30 minutes after administration) was “a remarkable rise was observed”. Also, the “Pain threshold at 120 minutes (in words)” value in the test with pain threshold (120 minutes after administration) is “essentially equal to that before administration”. For the same compound, the 50% effective dose (ED50) worked out at 137 mg/kg with writhing syndrome and 20.4 mg/kg in test [1].
